Test results: US20180244629A1, “Compounds And Compositions For The Treatment Of Cancer” (The Broad Institute, Inc., priority 2013, published 2018)
Read-outs that look alike come from different tables or passages of the source.

Tests used:
A549 cells = assay: A549 Cytotoxicity Assay (Cell Titer Glo viability); assay type: cell-based
Procedure: A549 Cytotoxicity Assay Protocol. Day 0: A549 cells (ATCC, A549 CCL-185) are grown to 95% confluence in RPMI, 10% FBS/Pen/Strep/L-Glutamine. Day 1: Plate cells (1000 per well) in 40 μl culturing media using Corning 384-well plates (3570), incubate in standard TC conditions (5% CO2, 95% humidity, 37° C.) for 24 h. Day 2: Dilute each concentration of a half-log serial dilution of compound (1 mM-100 nM) 1:200 in culturing media and add […] (50 μl total volume) of that dilution to designated wells (8 replicates per concentration). The final dilution will be 1000×([…]). Day 4: Remove plate from incubator to cool for 20 minutes to room temperature. Add 40 μl of a 25% Promega Cell Titer Glo solution (diluted 1:3 with room temperature PBS) with Thermo combi or multichannel and incubate for 10 min. Read on Perkin-Elmer EnVision with US LUM settings for 0.1 second per well.
A549 Assay Protocol. Day 0: A549 cells (ATCC) are grown in a Triple flask (NUNC) to ˜95% confluence (TrypLE Phenol Red free) and resuspended for dispensing at 25,000 cells/mL of DMEM, 10% FBS/Pen/Strep/L-Glutamine (using the TAP Compact SelecT automated cell culture system). Day 1: Plate cells at 1000 per well in 40 uL media (DMEM/10% FBS/Pen/Strep/L-Glutamine) using Corning 8867BC 384 well plates; incubate in standard TC conditions (5% CO2; 95% humidity, 37° C.) for 24 hours (Compact SelecT). Day 2: Add 100 nL compound per well at dose into 40 uL assay volume using a pin tool (CyBi Well). Pin 100 nL cytotoxic compounds, mitoxantrone (CID 4212) to positive control wells to a final concentration of 10 μM (100 nL 4 mM DMSO stock). Incubate for […] at 37° C. in Liconic incubator, 95% humidity 5% CO2. Day 4: Remove plate from incubator, cool for 15 minutes to room temperature; add 20 μL 50% Promega CellTiterGlo (diluted 1:1 with PBS, pH 7.4) with Thermo Combi. Incubate at room temperature for 5 minutes. Read plates on Perkin-Elmer EnVision with standard luminescence settings for 0.1 sec per well.
(§1) Compounds as shown were tested against various cells lines in vitro according to the methods described herein. Cells are plated in 384-well format in a total volume of 40 μl. Indicated compound concentrations were added 24 hrs after plating the cells. After 48 hrs cell viability was determined using Cell Titer Glo® Luminescent Cell Viability Assay.
as §1, with “Known PDE3 inhibitors” for “Compounds”, “shown below” for “shown”

HeLa cells = assay: HeLa Cytotoxicity Assay (Cell Titer Glo viability); assay type: cell-based
Procedure: HeLa Cytotoxicity Assay Protocol: Day 0: HeLa cells (ATCC, HeLa CCL-2) are grown to 95% confluence in DMEM, 10% FBS/Pen/Strep/L-Glutamine. Day 1: Plate cells (1000 per well) in 40 μl culturing media using Corning 384-well plates (3570), incubate in standard TC conditions (5% CO2, 95% humidity, 37 degrees C.) for 24 hours. Day 2: Dilute each concentration of a half-log serial dilution of compound (1 mM-100 nM) 1:200 in culturing media and add 10 μl (50 μl total volume) of that dilution to designated wells (8 replicates per concentration). The final dilution will be 1000×(1 μM-100 pM). Day 4: Remove plate from incubator to cool for 20 minutes to room temperature. Add 40 μl of a 25% Promega Cell Titer Glo solution (diluted 1:3 with room temperature PBS) with Thermo combi or multichannel and incubate for 10 minutes. Read on Perkin-Elmer EnVision with US LUM settings for 0.1 second per well.
as §1
as §1, with “Known PDE3 inhibitors” for “Compounds”, “shown below” for “shown”

[1] = Homo sapiens, A549, Mean ± SD (n = 3), read-out: Potency (EC50 nM) A549
[2] = Homo sapiens, HeLa, Mean ± SD (n = 3), read-out: Potency (EC50 nM) HeLa
[3] = Homo sapiens, A549, n = 2, read-out: Potency (EC50) A549
[4] = Homo sapiens, HeLa, n = 2, read-out: Potency (EC50) HeLa
[5] = 48 hrs, Cell Titer Glo, read-out: EC50 HeLa
[6] = Homo sapiens, A549, 48 hrs, Cell Titer Glo, read-out: EC50 A549
[7] = Homo sapiens, HeLa, 48 h, Cell Titer Glo, read-out: EC50 HeLa
[8] = Mean ± SD (n = 3), read-out: Potency (EC50 nM) HeLa

SMILES	EC50 (A549 cells; [1])	EC50 (HeLa cells; [2])	other results
CC1(C)C(=O)NN=C1c1ccc(N)cc1	> 10000 nM	> 1000 nM	–
CCN(CC)c1ccc(C2=NNC(=O)C2(C)C)cc1	> 10000 nM	> 1000 nM	–
CC1(C)C(=O)NN=C1c1ccc(N2CCOCC2)cc1	> 10000 nM	> 1000 nM	–
CC1(C)C(=O)NN=C1c1ccc(Cl)cc1	> 10000 nM	> 1000 nM	–
O=C1CC2CCc3cc(N4CCOCC4)ccc3C2=NN1 (stereo not drawn)	> 10000 nM	> 1000 nM	–
CCN(CC)c1ccc(-c2nc(C(C)C)no2)cc1[N+](=O)[O-]	–	–	EC50 (A549 cells; [3]): > 10000 nM; EC50 (HeLa cells; [4]): > 10000 nM
CC1CC(=O)N(c2ccccc2)N=C1c1ccc(Cl)cc1 (stereo not drawn)	–	–	EC50 (A549 cells; [3]): > 10000 nM; EC50 (HeLa cells; [4]): > 10000 nM
CC1CC(=O)NN=C1c1cccs1 (stereo not drawn)	–	–	EC50 (A549 cells; [3]): > 10000 nM; EC50 (HeLa cells; [4]): > 10000 nM
O=C1CC(c2ccccc2)=NN1	–	–	EC50 (A549 cells; [3]): > 10000 nM; EC50 (HeLa cells; [4]): > 10000 nM
CCN(CC)c1ccc(C(=O)Nc2ccccc2)cc1[N+](=O)[O-]	–	–	EC50 (A549 cells; [3]): > 10000 nM; EC50 (HeLa cells; [4]): > 10000 nM
Cc1ccc(CCC(=O)N2CCN(c3ccc(C4=NNC(=O)CC4C)cc3)CC2)cc1 (stereo not drawn)	–	–	EC50 (A549 cells; [3]): > 10000 nM; EC50 (HeLa cells; [4]): > 10000 nM
CC1CC(=O)NN=C1c1ccc(N2CCN(C(=O)Cc3ccc(Cl)cc3Cl)CC2)cc1 (stereo not drawn)	–	–	EC50 (A549 cells; [3]): > 10000 nM; EC50 (HeLa cells; [4]): > 10000 nM
CC(=O)Nc1ccc(C2=NNC(=O)CC2C)cc1 (stereo not drawn) [drawing 139]	–	–	EC50 (A549 cells; 48 hrs, Cell Titer Glo, read-out: EC50 A549): > 10000 nM; EC50 (HeLa cells; [5]): > 10000 nM
CC(=O)Nc1ccc(C2=NNC(=O)C[C@H]2C)cc1[N+](=O)[O-] [drawing 143]	–	–	EC50 (A549 cells; [6]): > 10000 nM; EC50 (HeLa cells; [7]): 0.00608 nM
CC(=O)Nc1ccc(C2=NNC(=O)C[C@H]2C)cc1 [drawing 144]	–	–	EC50 (A549 cells; [6]): > 10000 nM; EC50 (HeLa cells; [7]): > 10000 nM
CC(=O)Nc1ccc(C2=NNC(=O)C[C@H]2C)cc1Br [drawing 146]	–	–	EC50 (A549 cells; [6]): > 10000 nM; EC50 (HeLa cells; [7]): 42.1 nM

SMILES	EC50 (A549 cells; [1])	EC50 (HeLa cells; [2])	other results
CC(=O)Nc1ccc(C2=NNC(=O)CC2C)cc1 (stereo not drawn) [drawing 148]	–	–	EC50 (A549 cells; [6]): > 10000 nM; EC50 (HeLa cells; [5]): > 1000 nM
Cc1cc(=O)[nH]nc1-c1ccc(N)cc1 [drawing 149]	–	–	EC50 (A549 cells; [6]): > 10000 nM; EC50 (HeLa cells; [7]): > 1000 nM
CCN(CC)c1ccc(-c2n[nH]c(=O)cc2C)cc1 [drawing 150]	–	–	EC50 (A549 cells; [6]): > 10000 nM; EC50 (HeLa cells; [7]): > 1000 nM
CCN(CC)c1ccc(C2=NNC(=O)CC2C)cc1[N+](=O)[O-] (stereo not drawn) [drawing 154]	> 10000 nM	–	–
CCN(CC)c1ccc(C2=NNC(=O)C[C@H]2C)cc1[N+](=O)[O-] [drawing 155]	> 10000 nM	3.8 ± 1.1 nM	–
CCNc1ccc(C2=NNC(=O)C[C@H]2C)cc1[N+](=O)[O-] [drawing 156]	> 10000 nM	1.1 ± 0.5 nM	–
CCN1N=C(c2ccc(N(CC)CC)cc2)[C@H](C)CC1=O [drawing 160]	> 10000 nM	> 1000 nM	–
C[C@@H]1CC(=O)NN=C1c1ccc(N2CCOCC2)cc1 [drawing 164]	> 10000 nM	13 ± 2 nM	–
C[C@@H]1CC(=O)NN=C1c1ccc(N2CCOCC2)c(F)c1 [drawing 166]	> 10000 nM	1.6 ± 0.2 nM	–
CC(=O)Nc1ccc(C2=NNC(=O)CC2C)cc1 (stereo not drawn) [drawing 173]	> 10000 nM	> 1000 nM	–
CC(=O)Nc1ccc(C2=NNC(=O)C[C@H]2C)cc1 [drawing 174]	> 10000 nM	> 1000 nM	–
CC(=O)Nc1ccc(C2=NNC(=O)C[C@H]2C)cc1Br [drawing 175]	> 10000 nM	21 ± 1 nM	–
CC(=O)Nc1ccc(C2=NNC(=O)C[C@H]2C)cc1[N+](=O)[O-] [drawing 176]	> 10000 nM	4.9 ± 1.1 nM	–
C[C@@H]1CC(=O)NN=C1c1ccc(N2CCCC2=O)cc1 [drawing 182]	> 10000 nM	–	EC50 (HeLa cells; [8]): 140 ± 50 nM
C[C@@H]1CC(=O)NN=C1c1ccc(N2CCCC2=O)cc1 [drawing 183]	–	–	EC50 (A549 cells; Mean ± SD (n = 3), read-out: Potency (EC50 nM) A549): > 10000 nM; EC50 (HeLa cells; [8]): > 1000 nM
C[C@@H]1CC(=O)NN=C1c1ccc(F)c(F)c1 [drawing 190]	> 10000 nM	22 ± 5 nM	–
